The values below come from ChEMBL document CHEMBL1201862, “PubChem BioAssay data set” (2004).

What all share (assay): growth of human tumour cells (NCI), 48 h
Assay [1] relates to SNB-75.
Assay [2] concerns SK-MEL-2.
In assay [3] the test system is COLO 205.
The test system of assay [4] is MCF7.
Assay [5] concerns KM12.
The subject of assay [6] is LOX IMVI.
Assay [7] relates to M14.
In assay [8] the test system is MDA-N.
The subject of assay [9] is NCI-H460.
The subject of assay [10] is SF-295.
The test system of assay [11] is HOP-62.
The test system of assay [12] is A498.
Assay [13] deals with SNB-19.
The subject of assay [14] is DU-145.
The test system of assay [15] is MDA-MB-435.
Assay [16] concerns BT-549.
Assay [17] relates to RPMI-8226.
Assay [18] concerns HT-29.
Assay [19] concerns TK-10.
Assay [20] has as its system Hs-578T.

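Compound exposure: 48 hours, 5 concentrations, 96-well plates. At the GI50, growth is halved.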 Active and inactive are the calls of the source. Rule as the data show it: active = GI50 up to about 1.1 µM and inactive = higher.

For `C[C@]12CC[C@H]3[C@@H](CCC4=CC(=O)C=C[C@@]43O)[C@@H]1CCC2=O`, the GI50 is > 100 µM (inactive) in [1]; 77.4 µM (inactive) in assay [2]; > 100 µM (inactive) in assay [3]; > 100 µM (inactive) in [4]; > 100 µM (inactive) in assay [5]; 33.6 µM (inactive) in assay [6]. For the same compound, the GI50 in assay [7], in assay [8], in [9], in assay [10], in [11] and in assay [12] was > 100 µM (inactive) in each case. For the same compound, the GI50 is > 100 µM (inactive) in [13]; > 100 µM (inactive) in [14]; > 100 µM (inactive) in assay [15]; 55.2 µM (inactive) in [16]; > 100 µM (inactive) in [17].
Turning to `Cc1cccc2c(=O)c3cccc([C@H](C)C(=O)O)c3oc12`, the GI50 in assay [2], in [3], in assay [5], in assay [6], in assay [18] and in [7] was > 100 µM (inactive) throughout. Besides, the GI50 in assay [8], in assay [9], in [10], in assay [19], in assay [11] and in assay [12] was > 100 µM (inactive) each time. The GI50 in assay [13], in assay [14], in assay [15], in [16], in assay [17] and in assay [20] was > 100 µM (inactive) throughout.
Consider `CN1C2CCC1CN(CCOC(c1ccc(F)cc1)c1ccc(F)cc1)C2`, for which the GI50 in assay [1] is 26.5 µM (inactive); in assay [2] it was 23.8 µM (inactive); in [3], 15.3 µM (inactive); in assay [5], 21.8 µM (inactive); in assay [6] it was 19.8 µM (inactive); in [18], 19.5 µM (inactive). For the same compound, the GI50 was 20.1 µM (inactive) in assay [7]; 36 µM (inactive) in [8]; 20.9 µM (inactive) in assay [9]; 19.1 µM (inactive) in assay [10]; > 100 µM (inactive) in [19]; 21.4 µM (inactive) in assay [11]. Further, the GI50 is 24.8 µM (inactive) in [12]; > 100 µM (inactive) in [13]; 57.5 µM (inactive) in [14]; 23.4 µM (inactive) in assay [15]; 43.4 µM (inactive) in assay [16]; 23.9 µM (inactive) in assay [17]. For the same compound, in assay [20], the GI50 is 42.7 µM (inactive).
Regarding `COc1ccc2c(n1)Sc1nc3ccccc3nc1N2`, the GI50 was 25.5 µM (inactive) in assay [1]; > 100 µM (inactive) in assay [2]; > 100 µM (inactive) in assay [3]; 65.2 µM (inactive) in assay [4]; 55.7 µM (inactive) in assay [5]; 31.4 µM (inactive) in assay [6]. In addition, the GI50 is 85.7 µM (inactive) in assay [18]; > 100 µM (inactive) in assay [7]; 63.1 µM (inactive) in assay [9]; 26.7 µM (inactive) in [10]; 15.6 µM (inactive) in assay [19]; 16.1 µM (inactive) in assay [11]. Further, the GI50 was > 100 µM (inactive) in assay [12]; 30.3 µM (inactive) in assay [13]; > 100 µM (inactive) in [14]; 55.1 µM (inactive) in assay [15]; 41.6 µM (inactive) in assay [16]; > 100 µM (inactive) in assay [17]. The GI50 in assay [20] was 27.9 µM (inactive).
As to `O=C1N[C@@H]2O[C@H](CNC(=O)c3cc(Br)c[nH]3)C[C@]2(O)N1.O=C1N[C@H]2O[C@H](CNC(=O)c3cc(Br)c[nH]3)C[C@@]2(O)N1`, the GI50 in assay [1], in assay [2], in assay [3], in assay [4], in assay [5] and in [18] was > 100 µM (inactive) throughout. Moreover, the GI50 in assay [7], in assay [9], in assay [10], in assay [19], in [11] and in assay [12] was > 100 µM (inactive) each time. The GI50 in assay [13], in assay [14], in [15], in assay [16], in assay [17] and in [20] was > 100 µM (inactive) each time.
As for `COc1cc2c(/C=C3/C(=O)Nc4cccc(Cl)c43)c(Cl)[nH]c2cc1C`, the GI50 in assay [1] is 1.44 µM (inactive); in [2], 3.05 µM (inactive); in [3], 1.95 µM (inactive); in assay [4] it was 2.05 µM (inactive); in assay [5], 1.7 µM (inactive); in [6], 1.8 µM (inactive). For the same compound, the GI50 is 1.94 µM (inactive) in [18]; 2.23 µM (inactive) in assay [7]; 1.72 µM (inactive) in [9]; 1.69 µM (inactive) in [10]; 1.06 µM (active) in assay [19]; 2.15 µM (inactive) in [11]. The GI50 is 8.67 µM (inactive) in assay [12]; 2.14 µM (inactive) in [13]; 1.88 µM (inactive) in [14]; 1.57 µM (inactive) in assay [15]; 1.46 µM (inactive) in [16]; 1.93 µM (inactive) in assay [17]. The GI50 in assay [20] was 1.98 µM (inactive).
`CCOC(=O)N/N=C(/N)Cc1ccc(Cl)cc1`: the GI50 in [1], in assay [2], in assay [3], in assay [4], in assay [5] and in assay [6] was > 100 µM (inactive) throughout. Also, the GI50 in assay [18], in assay [7], in assay [8], in assay [10], in assay [19] and in [11] was > 100 µM (inactive) each time. For the same compound, the GI50 in assay [13], in assay [14], in [15], in assay [16] and in assay [17] was > 100 µM (inactive) each time.
With `C[C@]12CC[C@H]3[C@@H](CC[C@]4(O)C[C@@H](O)CC[C@]34CO)[C@@]1(O)CC[C@@H]2C1=CC(=O)OC1` [STROPHANTHIDOL], the GI50 in assay [1] is 4.02 µM (inactive); in assay [2], 2.5 µM (inactive); in assay [3], 3.73 µM (inactive); in assay [5], 3.66 µM (inactive); in [6] it was 2.01 µM (inactive); in [18] it was 1.94 µM (inactive). In addition, the GI50 in assay [7] is 3.01 µM (inactive); in assay [8] it was 2.99 µM (inactive); in [9], 0.431 µM (active); in assay [10], 1.21 µM (inactive); in assay [19], 1.52 µM (inactive); in assay [11], 1.36 µM (inactive). For the same compound, the GI50 is 1.61 µM (inactive) in [12]; 5.94 µM (inactive) in assay [13]; 1.36 µM (inactive) in assay [14]; 2.57 µM (inactive) in [15]; 1.51 µM (inactive) in assay [16]; 1.95 µM (inactive) in [17]. Besides, the GI50 in [20] was 1.46 µM (inactive).
`O=[N+]([O-])/C(Cl)=C(\NCCN/C(C(Cl)=C(Cl)Cl)=C(/Cl)[N+](=O)[O-])C(Cl)=C(Cl)Cl`: the GI50 was 35.5 µM (inactive) in [1]; 36.4 µM (inactive) in [3]; 47.6 µM (inactive) in [4]; 31.8 µM (inactive) in [5]; 18.8 µM (inactive) in [6]; 61.1 µM (inactive) in assay [7]. Moreover, the GI50 in assay [8] is 82.2 µM (inactive); in assay [9], 49.5 µM (inactive); in assay [10], 39.7 µM (inactive); in [19] it was 71.4 µM (inactive); in assay [11], 71.8 µM (inactive); in assay [12] it was 48.1 µM (inactive). The GI50 was 92.9 µM (inactive) in assay [13]; > 100 µM (inactive) in [14]; 87.1 µM (inactive) in assay [15]; 69 µM (inactive) in assay [16]; 17.7 µM (inactive) in [17].
For `Cc1ccccc1/N=N/c1ccc(/N=N/c2c(O)ccc3ccccc23)c(C)c1` [SCARLET RED], the GI50 was 72.1 µM (inactive) in assay [1]; > 100 µM (inactive) in assay [2]; > 100 µM (inactive) in [3]; > 100 µM (inactive) in [5]; > 100 µM (inactive) in assay [6]; > 100 µM (inactive) in assay [18]. In addition, the GI50 is > 100 µM (inactive) in assay [7]; 56.8 µM (inactive) in assay [10]; > 100 µM (inactive) in assay [19]; 38 µM (inactive) in assay [11]; > 100 µM (inactive) in assay [12]; 81.7 µM (inactive) in assay [13]. In addition, the GI50 in assay [14] was > 100 µM (inactive); in [15] it was > 100 µM (inactive); in assay [16] it was > 100 µM (inactive); in assay [17], > 100 µM (inactive); in assay [20], 44.2 µM (inactive).
Regarding `COc1ccc(Nc2nc(NNC(=O)Cc3ccccc3)nc(NNC(=O)c3ccncc3)n2)cc1`, the GI50 in [1], in assay [3], in assay [4], in [5], in [6] and in assay [18] was > 10 µM (inactive) each time. The GI50 in assay [7], in assay [8], in [9], in assay [10], in [19] and in assay [11] was > 10 µM (inactive) throughout. The GI50 in [12], in assay [13], in assay [14], in assay [15] and in assay [16] was > 10 µM (inactive) each time.
